# Assay results: the Kinase Knowledgebase extract (Sharma et al. 2016)
# Key:
# [1] = molecular target: PIK3CA (human) (UniProt P42336); experiment: Cell-Based Assay; conditions: rat-1
# [2] = molecular target: PIK3CD (Human) (UniProt O00329); experiment: Cell-Based Assay; conditions: rat-1
# [3] = molecular target: PIK3CG (human) (UniProt P48736); experiment: Cell-Based Assay; conditions: u937
# [4] = molecular target: PIK3CA (human) (UniProt P42336); experiment: Enzyme Assay
# [5] = molecular target: PIK3CD (Human) (UniProt O00329); experiment: Enzyme Assay
# [6] = molecular target: PIK3CG (human) (UniProt P48736); experiment: Enzyme Assay
# PIK3CG (human), sequence (P48736 whole entry, looked up): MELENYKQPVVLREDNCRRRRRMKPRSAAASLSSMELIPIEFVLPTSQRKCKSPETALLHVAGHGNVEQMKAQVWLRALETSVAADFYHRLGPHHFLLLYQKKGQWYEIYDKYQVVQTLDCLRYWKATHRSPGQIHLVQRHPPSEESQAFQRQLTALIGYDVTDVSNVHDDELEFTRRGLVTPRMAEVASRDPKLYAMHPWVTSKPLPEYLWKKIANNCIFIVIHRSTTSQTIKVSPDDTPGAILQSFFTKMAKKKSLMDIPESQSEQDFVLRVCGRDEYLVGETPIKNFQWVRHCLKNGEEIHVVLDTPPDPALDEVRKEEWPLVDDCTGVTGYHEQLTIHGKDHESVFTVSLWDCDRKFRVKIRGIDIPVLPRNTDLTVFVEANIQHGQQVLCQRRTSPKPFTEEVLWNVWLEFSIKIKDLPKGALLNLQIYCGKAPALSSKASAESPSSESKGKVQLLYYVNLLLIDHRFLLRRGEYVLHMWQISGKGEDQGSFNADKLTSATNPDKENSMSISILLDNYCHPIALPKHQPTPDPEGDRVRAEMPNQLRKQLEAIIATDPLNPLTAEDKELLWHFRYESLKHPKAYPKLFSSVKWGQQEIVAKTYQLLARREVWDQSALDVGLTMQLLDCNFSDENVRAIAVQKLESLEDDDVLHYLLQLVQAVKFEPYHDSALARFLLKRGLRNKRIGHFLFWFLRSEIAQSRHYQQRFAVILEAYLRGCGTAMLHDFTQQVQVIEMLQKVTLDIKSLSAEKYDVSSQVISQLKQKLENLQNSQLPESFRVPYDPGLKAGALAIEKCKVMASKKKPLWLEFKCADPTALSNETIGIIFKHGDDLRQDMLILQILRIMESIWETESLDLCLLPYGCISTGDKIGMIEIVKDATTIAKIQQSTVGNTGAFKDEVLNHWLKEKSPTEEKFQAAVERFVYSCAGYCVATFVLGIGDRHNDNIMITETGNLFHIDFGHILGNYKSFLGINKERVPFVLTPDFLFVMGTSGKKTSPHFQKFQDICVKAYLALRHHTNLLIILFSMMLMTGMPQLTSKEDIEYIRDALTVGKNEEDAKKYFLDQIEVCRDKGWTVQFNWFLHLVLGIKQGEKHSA
# PIK3CA (human), sequence (P42336 whole entry, looked up): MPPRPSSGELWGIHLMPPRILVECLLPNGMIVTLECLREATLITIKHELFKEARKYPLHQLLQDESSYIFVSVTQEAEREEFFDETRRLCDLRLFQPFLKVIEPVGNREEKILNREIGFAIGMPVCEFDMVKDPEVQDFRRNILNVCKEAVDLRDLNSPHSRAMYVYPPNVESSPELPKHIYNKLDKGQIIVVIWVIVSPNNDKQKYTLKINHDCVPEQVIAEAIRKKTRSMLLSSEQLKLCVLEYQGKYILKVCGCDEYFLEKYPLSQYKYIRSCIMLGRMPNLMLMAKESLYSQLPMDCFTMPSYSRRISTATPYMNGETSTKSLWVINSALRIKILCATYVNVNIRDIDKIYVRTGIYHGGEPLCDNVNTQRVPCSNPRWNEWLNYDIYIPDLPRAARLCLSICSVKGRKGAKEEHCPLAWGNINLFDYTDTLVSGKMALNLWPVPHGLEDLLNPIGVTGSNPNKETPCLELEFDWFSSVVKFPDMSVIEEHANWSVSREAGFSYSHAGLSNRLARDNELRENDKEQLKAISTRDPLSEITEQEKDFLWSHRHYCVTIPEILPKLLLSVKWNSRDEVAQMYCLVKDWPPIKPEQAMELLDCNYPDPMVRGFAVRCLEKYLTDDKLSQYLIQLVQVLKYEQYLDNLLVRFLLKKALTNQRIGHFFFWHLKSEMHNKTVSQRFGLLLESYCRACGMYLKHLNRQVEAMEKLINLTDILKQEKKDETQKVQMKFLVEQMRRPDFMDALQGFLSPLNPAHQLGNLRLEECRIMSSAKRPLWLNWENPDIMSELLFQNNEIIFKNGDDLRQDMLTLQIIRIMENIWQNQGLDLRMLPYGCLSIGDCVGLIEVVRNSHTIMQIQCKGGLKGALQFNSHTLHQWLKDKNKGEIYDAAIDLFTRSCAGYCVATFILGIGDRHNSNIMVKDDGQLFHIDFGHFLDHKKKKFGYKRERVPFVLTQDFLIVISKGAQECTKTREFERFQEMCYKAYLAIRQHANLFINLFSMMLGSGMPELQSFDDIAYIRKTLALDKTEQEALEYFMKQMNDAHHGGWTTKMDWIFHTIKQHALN
# PIK3CD (Human), sequence (O00329 whole entry, looked up): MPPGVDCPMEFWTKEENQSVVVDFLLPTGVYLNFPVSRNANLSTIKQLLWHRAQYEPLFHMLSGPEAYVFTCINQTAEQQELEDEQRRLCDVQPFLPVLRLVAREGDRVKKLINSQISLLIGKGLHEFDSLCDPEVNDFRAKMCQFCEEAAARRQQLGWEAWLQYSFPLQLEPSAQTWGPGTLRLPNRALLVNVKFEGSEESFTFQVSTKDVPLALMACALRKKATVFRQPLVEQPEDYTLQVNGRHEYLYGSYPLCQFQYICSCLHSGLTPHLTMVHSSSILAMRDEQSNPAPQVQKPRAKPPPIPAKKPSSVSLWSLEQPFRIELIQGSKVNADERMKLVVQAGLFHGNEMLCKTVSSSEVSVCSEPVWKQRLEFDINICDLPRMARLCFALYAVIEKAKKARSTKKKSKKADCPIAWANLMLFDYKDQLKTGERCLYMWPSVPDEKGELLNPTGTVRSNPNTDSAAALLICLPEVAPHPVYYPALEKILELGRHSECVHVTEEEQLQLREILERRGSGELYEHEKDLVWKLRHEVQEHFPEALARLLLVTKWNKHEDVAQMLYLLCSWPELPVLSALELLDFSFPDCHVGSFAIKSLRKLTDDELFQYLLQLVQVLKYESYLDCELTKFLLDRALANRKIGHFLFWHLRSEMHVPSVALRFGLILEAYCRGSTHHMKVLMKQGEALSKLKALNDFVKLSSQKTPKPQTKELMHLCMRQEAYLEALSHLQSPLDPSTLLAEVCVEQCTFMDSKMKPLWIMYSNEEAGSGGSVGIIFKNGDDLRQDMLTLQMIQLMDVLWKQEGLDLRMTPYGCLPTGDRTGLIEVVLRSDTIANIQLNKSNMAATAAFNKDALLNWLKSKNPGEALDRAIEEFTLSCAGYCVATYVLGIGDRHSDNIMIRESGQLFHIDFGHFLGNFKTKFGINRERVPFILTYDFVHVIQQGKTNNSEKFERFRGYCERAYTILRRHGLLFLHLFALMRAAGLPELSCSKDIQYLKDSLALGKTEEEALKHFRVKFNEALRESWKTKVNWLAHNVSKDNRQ
Compound,IC50 [1],IC50 [2],IC50 [3],IC50 [4],IC50 [5],IC50 [6]
O=c1c2c(Cl)cccc2nc([C@@H]2C[C@H](OC(F)F)CN2c2ncnc3[nH]cnc23)n1-c1ccccc1,> 10000 nM,17 nM,117 nM,620 nM,5 nM,34 nM
N#Cc1c(N)nc(N)nc1N1CCC[C@H]1c1nc2cccc(C(F)(F)F)c2c(=O)n1-c1ccccc1,2370 nM,6 nM,35 nM,290 nM,46 nM,52 nM
N#Cc1c(N)ncnc1N1CSC[C@H]1c1nc2cccc(Cl)c2c(=O)n1-c1ccccc1,8120 nM,14 nM,> 10000 nM,2340 nM,5 nM,129 nM
Cc1nc(N)nc(N2C[C@@H](O)C[C@H]2c2nc3cccc(F)c3c(=O)n2-c2ccccc2)c1C#N,6600 nM,24 nM,114 nM,1300 nM,18 nM,90 nM
Nc1nc(N2CCC[C@H]2c2nc3cccc(Cl)c3c(=O)n2C2CC2)c2nc[nH]c2n1,8120 nM,349 nM,886 nM,3600 nM,85 nM,110 nM
Nc1nc(N2CCC[C@H]2c2nc3cccc(Cl)c3c(=O)n2-c2ccccc2)c2ncsc2n1,> 10000 nM,< 3 nM,59 nM,350 nM,10 nM,19 nM
Cc1nc(N)nc(N2CCC[C@H]2c2nc3cccc(C(F)(F)F)c3c(=O)n2-c2cccc(F)c2)c1C#N,4440 nM,37 nM,164 nM,890 nM,17 nM,82 nM
CO[C@H]1C[C@@H](c2nc3cccc(Cl)c3c(=O)n2C2CC2)N(c2ncnc(N)c2C#N)C1,3230 nM,26 nM,473 nM,2800 nM,128 nM,417 nM
Cc1nc(N)nc(N2C[C@@H](O)C[C@H]2c2nc3cccc(Cl)c3c(=O)n2C2CC2)c1C#N,4230 nM,86 nM,219 nM,698 nM,221 nM,85 nM
N#Cc1c(C(F)F)nc(N)nc1N1C[C@@H](O)C[C@H]1c1nc2cccc(C(F)(F)F)c2c(=O)n1-c1ccccc1,> 10000 nM,517 nM,187 nM,> 10000 nM,220 nM,58 nM
Cc1nc(N)nc(N2C[C@@H](O)C[C@H]2c2nc3cccc(Cl)c3c(=O)n2-c2ccccc2)c1C#N,1040 nM,4 nM,5 nM,360 nM,12 nM,18 nM
Nc1nc(N2CCC[C@H]2c2nc3cccc(C(F)(F)F)c3c(=O)n2-c2cncc(F)c2)c2nc[nH]c2n1,> 10000 nM,164 nM,324 nM,> 10000 nM,160 nM,320 nM
Nc1nc(N2C[C@@H](F)C[C@H]2c2nc3cccc(C(F)(F)F)c3c(=O)n2-c2ccccc2)c2nc[nH]c2n1,3300 nM,29 nM,45 nM,1300 nM,18 nM,9 nM
CO[C@H]1C[C@@H](c2nc3cccc(C(F)(F)F)c3c(=O)n2N2CCOCC2)N(c2ncnc(N)c2C#N)C1,> 10000 nM,117 nM,1890 nM,> 10000 nM,53 nM,1900 nM
CS(=O)(=O)c1cccc2nc([C@@H]3CCCN3c3ncnc(N)c3C#N)n(-c3ccccc3)c(=O)c12,4600 nM,38 nM,821 nM,5100 nM,7 nM,1200 nM
Nc1nc(N2C[C@@H](O)C[C@H]2c2nc3cccc(C(F)(F)F)c3c(=O)n2-c2ccccc2)c2nccn2n1,> 10000 nM,90 nM,31 nM,3300 nM,26 nM,31 nM
Cc1c(F)ccc2nc([C@@H]3C[C@H](O)CN3c3ncnc(N)c3C#N)n(-c3ccccc3)c(=O)c12,2720 nM,7 nM,331 nM,2200 nM,10 nM,370 nM
Nc1nc(N2C[C@@H](F)C[C@H]2c2nc3cccc(C(F)(F)F)c3c(=O)n2-c2cccc(F)c2)c2nc[nH]c2n1,8250 nM,50 nM,71 nM,2500 nM,26 nM,38 nM
Cc1nc(N)nc(N2C[C@@H](F)C[C@H]2c2nc3cccc(C(F)(F)F)c3c(=O)n2-c2ccccc2)c1C#N,2060 nM,12 nM,22 nM,590 nM,10 nM,47 nM
Cc1nc(N)nc(N2C[C@@H](O)C[C@H]2c2nc3cccc(C(F)(F)F)c3c(=O)n2N2CCOCC2)c1C#N,4590 nM,92 nM,83 nM,2000 nM,66 nM,100 nM
N#Cc1c(N)ncnc1N1CCC[C@H]1c1nc2cccc(C(F)(F)F)c2c(=O)n1-c1ccccc1,> 10000 nM,62 nM,261 nM,2800 nM,12 nM,140 nM
CS(=O)(=O)N[C@H]1C[C@@H](c2nc3cccc(Cl)c3c(=O)n2-c2ccccc2)N(c2ncnc3[nH]cnc23)C1,> 10000 nM,76 nM,148 nM,300 nM,4 nM,17 nM
N#Cc1c(N)ncnc1N1CCC[C@H]1c1nc2cccc(Cl)c2c(=O)n1C1CC1,4020 nM,43 nM,74 nM,560 nM,7 nM,25 nM
Cc1nc(N)nc(N2C[C@@H](O)C[C@H]2c2nc3ccc(F)c(F)c3c(=O)n2-c2ccccc2)c1C#N,7130 nM,30 nM,33 nM,700 nM,43 nM,97 nM
Cc1nc(N)nc(N2C[C@@H](O)C[C@H]2c2nc3cccc(C(F)(F)F)c3c(=O)n2-c2cccc(F)c2)c1C#N,6570 nM,16 nM,10 nM,1700 nM,24 nM,80 nM
COc1cccc2nc([C@@H]3CCCN3c3ncnc(N)c3C#N)n(-c3ccccc3)c(=O)c12,> 10000 nM,> 10000 nM,382 nM,> 10000 nM,76 nM,5200 nM
Cn1cnc2c(N3CCC[C@H]3c3nc4cccc(Cl)c4c(=O)n3-c3ccccc3)nc(N)nc21,> 10000 nM,110 nM,216 nM,3700 nM,52 nM,305 nM
Cc1nc(N)nc(N2C[C@@H](O)C[C@H]2c2nc3ccc(F)c(Cl)c3c(=O)n2-c2ccccc2)c1C#N,1950 nM,10 nM,7 nM,280 nM,13 nM,14 nM
Cc1nc(N)nc(N2CCC[C@H]2c2nc3ccc(F)c(S(C)(=O)=O)c3c(=O)n2-c2ccccc2)c1C#N,> 10000 nM,103 nM,1580 nM,5500 nM,38 nM,1100 nM
N#Cc1c(N)ncnc1N1CCC[C@H]1c1nc2cccc(Cl)c2c(=O)n1-c1ccccc1,1750 nM,7 nM,74 nM,393 nM,< 3 nM,24 nM
